Values belong to the compound of their own block, whether it stands above or below them.
Assays:
[1] = target: T1, PLK1 PBD (367-603) (Homo sapiens, UniProt P53350); experiment: Fluorescence polarization assay, PLK1 PBD; assay type: binding; conditions: fluorescence polarization; read-out: PLK1 PBD IC50
T1 construct: PLK1 PBD (367-603) and PLK3 PBD (335-646) proteins were obtained from BPS Biosciences Inc; purchased BPS Biosciences Inc. (San Diego, CA)
Experimental: (§1) Materials were dissolved in DMSO (10 mM) and diluted from 10 nM to 600 μM (maximum of 6% DMSO tolerance in the assay). PLK1 PBD (367-603) and PLK3 PBD (335-646) proteins were obtained from BPS Biosciences Inc. (San Diego, CA); 17 ng PLK1 and 156 ng PLK3 were used per reaction. The fluorescein-tracer phospho-peptides (MAGPMQS[pT]PLNGAKK (SEQ ID NO: 1) for PLK1, and GPLATS[pT]PKNG (SEQ ID NO: 2) for PLK3) were used at a final concentration of 10 nM. Incubation was carried out at room temperature for 45 minutes. Fluorescence was measured using a DTX 880 plate reader and Multimode Analysis software (Beckman Coulter, Brea, CA). The polarization values in millipolarization (mP) units were measured at an excitation wavelength of 488 nm and an emission wavelength of 535 nm. Each data point was performed in triplicate for every experiment, and experiments were performed at least three times. An IC50 value for each compound was calculated from linear regression analysis of the plots.

[2] = target: T2, PLK3 PBD (335-646) (Homo sapiens, UniProt Q9H4B4); experiment: Fluorescence polarization assay, PLK3 PBD; assay type: binding
T2 construct: PLK1 PBD (367-603) and PLK3 PBD (335-646) proteins were obtained from BPS Biosciences Inc; purchased BPS Biosciences Inc. (San Diego, CA)
T2 sequence (Q9H4B4 335-646): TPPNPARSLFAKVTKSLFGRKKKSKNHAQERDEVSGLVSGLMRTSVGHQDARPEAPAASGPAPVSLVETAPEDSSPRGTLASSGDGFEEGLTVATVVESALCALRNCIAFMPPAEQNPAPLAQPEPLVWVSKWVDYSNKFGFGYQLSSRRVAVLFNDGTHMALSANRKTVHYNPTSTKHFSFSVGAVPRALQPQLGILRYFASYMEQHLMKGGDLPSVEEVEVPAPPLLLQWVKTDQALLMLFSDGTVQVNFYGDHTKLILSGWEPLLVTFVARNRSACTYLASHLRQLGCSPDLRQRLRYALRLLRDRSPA
Experimental: as §1

[3] = tested on: SH-SY5Y neuroblastoma cells overexpressing PLK1; experiment: Cell viability assay in neuroblastoma cells; assay type: cell-based; conditions: Homo sapiens, SH-SY5Y
Experimental: (§2) Abbapolin compounds activity was evaluated in neuroblastoma cells. […] Further, abbapolins induced PLK1 degradation in SH-SY5Y cells (FIG. 14-16).

[4] = tested on: LOX IMVI; experiment: Single dose cell viability assay, LOX IMVI; assay type: cell-based; conditions: single dose 25 μM, 48 hours
Experimental: (§3) Lead abbapolin compounds were tested in multiple cancer cell lines, including non-small cell lung cancer (NSCLC) cells, melanoma cells, colon cancer cells, central nervous system (CNS) cancer cells, prostate cancer cells, renal cancer cells, and breast cancer cells. Each of these cancer cells lines were sensitive to the lead abbapolin compounds in a cell viability assay, including 6184 (Table 3), 6277 (Table 4), 6279 (Table 5), 6355 (Table 6), 6359 (Table 7), 6369 (Table 8), and 6421 (Table 9).

[5] = tested on: HCT-15; experiment: Single dose cell viability assay, HCT-15; assay type: cell-based; conditions: HCT-15 (Colon), single dose 25 μM
Experimental: as §3

[6] = tested on: MOLT-4; experiment: Single dose cell viability assay, MOLT-4; assay type: cell-based; conditions: MOLT-4 (Leukemia), single dose 25 μM
Experimental: as §3

[7] = tested on: NCI-H460; experiment: Single dose cell viability assay, NCI-H460; assay type: cell-based; conditions: NCI-H460 (NSCLC), single dose 25 μM
Experimental: as §3

[8] = tested on: RPMI-8226; experiment: Single dose cell viability assay, RPMI-8226; assay type: cell-based; conditions: RPMI-8226 (Leukemia), single dose 25 μM
Experimental: as §3

[9] = tested on: CCRF-CEM; experiment: Single dose cell viability assay, CCRF-CEM; assay type: cell-based; conditions: CCRF-CEM (Leukemia), single dose 25 μM
Experimental: as §3

[10] = tested on: HCT-116; experiment: Single dose cell viability assay, HCT-116; assay type: cell-based; conditions: HCT-116 (Colon), single dose 25 μM
Experimental: as §3

[11] = tested on: K-562; experiment: Single dose cell viability assay, K-562; assay type: cell-based; conditions: K-562 (Leukemia), single dose 25 μM
Experimental: as §3

[12] = tested on: SR; experiment: Single dose cell viability assay, SR; assay type: cell-based; conditions: SR (Leukemia), single dose 25 μM
Experimental: as §3

[13] = tested on: A549/ATCC; experiment: Single dose cell viability assay, A549/ATCC; assay type: cell-based; conditions: A549/ATCC (NSCLC), single dose 25 μM
Experimental: as §3

[14] = target: T3, PLK1 (Homo sapiens, UniProt P53350); experiment: PLK1 degradation in SH-SY5Y cells; assay type: cell-based; set-up: endogenous in cells
T3 sequence (P53350 whole entry): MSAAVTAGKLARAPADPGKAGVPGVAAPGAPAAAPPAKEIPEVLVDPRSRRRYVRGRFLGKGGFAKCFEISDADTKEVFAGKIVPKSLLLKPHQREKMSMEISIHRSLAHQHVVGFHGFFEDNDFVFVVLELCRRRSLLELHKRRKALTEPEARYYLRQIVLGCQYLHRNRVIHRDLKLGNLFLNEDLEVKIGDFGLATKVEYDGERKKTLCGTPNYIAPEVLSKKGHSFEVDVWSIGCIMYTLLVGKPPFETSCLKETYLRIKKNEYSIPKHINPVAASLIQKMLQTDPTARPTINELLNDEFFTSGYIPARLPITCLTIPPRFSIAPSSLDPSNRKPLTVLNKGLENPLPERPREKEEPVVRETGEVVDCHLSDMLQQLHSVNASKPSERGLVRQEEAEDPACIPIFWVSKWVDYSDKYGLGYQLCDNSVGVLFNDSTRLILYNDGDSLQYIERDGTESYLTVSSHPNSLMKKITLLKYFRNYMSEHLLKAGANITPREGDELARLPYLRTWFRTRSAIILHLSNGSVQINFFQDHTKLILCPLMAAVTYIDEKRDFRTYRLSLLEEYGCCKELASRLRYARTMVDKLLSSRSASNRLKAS
Experimental: as §2

[15] = tested on: PC3 prostate cancer cells; experiment: MTT cell viability assay, PC3; assay type: cell-based; conditions: for IC50: 72 h, MTT
Experimental: PC3 prostate cancer cells were maintained in DMEM (Invitrogen™, Carlsebad, CA) supplemented with 10% FBS or Corning® Nu-serum™(BD™ Biosciences, Franklin Lakes, NJ) and 1% penicillin/streptomycin (Invitrogen™) in a humidified incubator and 5% CO2 at 37° C.
Exponentially growing cells were plated in 96-well dishes. Dose response curves were used to treat cells for 72 hours with inhibitors. Following the three-day treatment, cell viability was measured using the MTT (3-(4,5-dimethylthiazol-2-yl)-2,5-diphenyltetrazolium bromide) colorimetric assay. Cells were incubated for 3 hours with MTT allowing viable cells to metabolize the tetrazolium dye to a purple colored solution. Absorbance measurements (595 nm) were quantified using a DTX 880 plate reader and IC50 values were generated for FLIPs.

[16] = target: T3, PLK1; experiment: Cellular thermal shift assay (CETSA); assay type: cell-based; set-up: endogenous in cells; host or cells: PC3 prostate cancer cells; conditions: intracellular PLK1
Experimental: Cellular thermal shift assay (CETSA) was performed with PC3 cells cultured in RPMI medium supplemented with 10% FBS. For an initial determination of the melting profile of PLK1 AND PLK3, cells dispensed into 96-well PCR plates in the above medium (6000 cells/well in 50 μL) were subjected to temperature gradient (38-60° C.) for 10 min. […] Centrifugation was performed at 14000 rpm to sediment the denatured protein content. Supernatant was collected and subjected to SDS-PAGE, and immunodetection was performed using anti-PLK1 and anti-PLK3 antibodies. PLK1 and PLK3 bands were quantified on a LI-COR C-Digit Blot Scanner, and Tagg and Tagg values were calculated for both proteins. In subsequent experiments, cells were treated at increasing doses (3.0, 1.0, 0.3, 0.1, 0.03 μM) of inhibitors together with DMSO control, for 2 h. Cells were then subjected to heat shock at Tagg for 10 min, and unstable protein was removed by centrifugation step. Following immuno-blotting, bands of stable PLK1 and PLK3 were quantified, normalized to loading control and plotted using GraphPad Prism software. EC50 values for inhibitors were calculated. […] The EC50 of the peptides were determined from the curve fit of the dose response.

[17] = target: T3, PLK1; experiment: PLK1 degradation in HeLa cells; assay type: cell-based; set-up: endogenous in cells; conditions: HeLa cell line, 24, 48 and 72 hours
Experimental: (§4) For example, PC3 cells were treated with varying dosages of abbapolin 6369, and percent of PLK1 degradation was measured at 24 hours (FIGS. 8A-8B). HeLa cells were treated with 25 μM abbapolin 6369, and time points shown in the assay were 24 hours, 48 hours, and 72 hours (FIGS. 9A-9B). PC3 cells were treated with varying dosages of abbapolin 6329, and percent of PLK1 degradation was measured at 24 hours (FIGS. […]). HeLa cells were treated with varying dosages of abbapolin 6329, and time points shown in the assay were 24 hours, 48 hours, and 72 hours (FIGS. 11A-11B).

[18] = target: T3, PLK1; experiment: PLK1 degradation in PC3 cells; assay type: cell-based; set-up: endogenous in cells; host or cells: PC3 prostate cancer cells; conditions: PC3 cell line, 24 hours
Experimental: as §4

[19] = tested on: HOP-92; experiment: Single dose cell viability assay, HOP-92; assay type: cell-based; conditions: HOP-92 (NSCLC)
Experimental: as §3

[20] = tested on: U251; experiment: Single dose cell viability assay, U251; assay type: cell-based; conditions: U251 (CNS), single dose 25 μM
Experimental: as §3

[21] = tested on: SF-295; experiment: Single dose cell viability assay, SF-295; assay type: cell-based; conditions: SF-295 (CNS), single dose 25 μM
Experimental: as §3

[22] = tested on: NCI-H522; experiment: Single dose cell viability assay, NCI-H522; assay type: cell-based; conditions: NCI-H522 (NSCLC), single dose 25 μM
Experimental: as §3

[23] = tested on: SK-MEL-2; experiment: Single dose cell viability assay, SK-MEL-2; assay type: cell-based; conditions: SK-MEL-2 (Melanoma), single dose 25 μM
Experimental: as §3

[24] = tested on: MDA-MB-468; experiment: Single dose cell viability assay, MDA-MB-468; assay type: cell-based; conditions: MDA-MB-468 (Breast), single dose 25 μM
Experimental: as §3

[25] = tested on: SK-MEL-5; experiment: Single dose cell viability assay, SK-MEL-5; assay type: cell-based; conditions: SK-MEL-5 (Melanoma), single dose 25 μM
Experimental: as §3

[26] = tested on: UACC-62; experiment: Single dose cell viability assay, UACC-62; assay type: cell-based; conditions: UACC-62 (Melanoma), single dose 25 μM
Experimental: as §3

T1 sequence (P53350 367-603): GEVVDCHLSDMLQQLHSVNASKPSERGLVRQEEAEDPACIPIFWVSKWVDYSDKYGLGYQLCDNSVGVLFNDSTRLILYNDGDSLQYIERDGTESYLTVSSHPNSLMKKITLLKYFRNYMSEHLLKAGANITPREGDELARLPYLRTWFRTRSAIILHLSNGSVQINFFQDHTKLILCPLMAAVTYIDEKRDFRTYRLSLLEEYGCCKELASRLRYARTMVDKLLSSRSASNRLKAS

SMILES: CCCCCCCCN(C)c1ccc(C(=O)Nc2ccc(C)cc2C(=O)O)cc1 [compound 6172]
IC50 [1]: > 600 µM
IC50 [15]: 28 µM

SMILES: CCCCCCCCc1ccc(C(=O)Nc2ccc(C(F)(F)F)cc2C(=O)O)cc1 [compound 6165]
IC50 [1]: 23.5 ± 4.9 µM
IC50 [2]: 37.6 ± 5.7 µM
IC50 [15]: 14.2 ± 2 µM

SMILES: CCCCCCCCc1ccc(C(=O)Nc2ccccc2CP(=O)(O)O)cc1 [compound 6184]
IC50 [1]: 95.3 µM
IC50 [15]: 9.2 µM
Cells Remaining (%) ([19]; single dose 10 μM): 43.86%

SMILES: CCCCCCCOc1cccc(S(=O)(=O)Nc2ccc(C)cc2C(=O)O)c1 [compound 6355]
Cells Remaining (%) ([19]; single dose 25 μM): 57.02%
Cells Remaining (%) [5]: 49.94%
Cells Remaining (%) [8]: 51.41%
Cells Remaining (%) [9]: 67.09%
Cells Remaining (%) [20]: 64.99%
Cells Remaining (%) [21]: 59.2%
Cells Remaining (%) [22]: 65.09%
Cells Remaining (%) [23]: 30.01%
Cells Remaining (%) [24]: 55.12%
Cells Remaining (%) [25]: 59.55%
Cells Remaining (%) [26]: 61.59%

SMILES: CCCCCCCCN(C)c1ccc(C(=O)Nc2cc(C)ccc2C(=O)O)cc1 [compound 6171]
IC50 [1]: > 600 µM
IC50 [15]: 27.3 µM

The next lines start with results.

IC50 [1]: 19.7 µM
IC50 [2]: 29.4 µM
IC50 [3]: 5.25 ± 0.5 µM
PLK1 degradation [14]: degradation of PLK1
SMILES: CCCCCCCCc1cccc(CC(=O)Nc2ccc(C)cc2C(=O)O)c1 [compound 6277]
inhibition at 25 µM ([4]; Homo sapiens, LOX IMVI, from cells remaining): 96.4%
Cells Remaining (%) ([4]; LOX IMVI (Melanoma)): 3.4%
Cells Remaining (%) [5]: 13.2%
Cells Remaining (%) [6]: 17.93%
Cells Remaining (%) [7]: 20.45%
Cells Remaining (%) [8]: 25.43%
Cells Remaining (%) [9]: 26.74%
Cells Remaining (%) [10]: 28.14%
Cells Remaining (%) [11]: 28.94%
Cells Remaining (%) [12]: 31.08%
Cells Remaining (%) [13]: 31.38%

PLK1 thermal stability by CETSA [16]: decreased the stability of PLK1
SMILES: CC[C@@H]1C(=O)N(C)c2cnc(Nc3ccc(C(=O)N[C@H]4CC[C@H](N5CCN(CC6CC6)CC5)CC4)cc3OC)nc2N1C(C)C [volasertib, reference compound]

PLK1 degradation [17]: degradation of PLK1
PLK1 degradation [18]: degradation of PLK1
SMILES: Cc1ccc(NC(=O)c2ccc(OCCCCCCCCCCCNC(=O)CCCC(=O)Nc3cccc4c3C(=O)N(C3CCC(=O)NC3=O)C4=O)cc2)c(C(=O)O)c1 (centres unmarked) [compound 6329]

IC50 [1]: 80.8 µM
SMILES: CCCCCCCCc1ccc(C(=O)Nc2cccc(P(=O)(O)O)c2)cc1 [compound 6287]
PC3 % inhi. ([15]; at 100 μM): 50% inhi. at

Source: patent publication US20230338316A1, “ABBAPOLINS AS INHIBITORS AND DEGRADERS OF POLO-LIKE KINASES” (UNIVERSITY OF SOUTH CAROLINA, priority 2022, published 2023)
